According to patent US20260327239A1, “COMPOUNDS FOR COVALENT INHIBITION OF SHP2” (Purdue Research Foundation, priority 2023, published 2026):
pIC50: −log10 of the molar value.

Key:
SHP2 [1] = molecular target: T1, SHP2 (Homo sapiens, UniProt Q06124); experiment: Time-dependent IC50 determination, SHP2 (10 min preincubation, pNPP); assay type: biochemical; conditions: 10 mM pNPP, pH 7, 25° C, read-out: 10 Minute IC50
T1 construct: 4× solution of SHP2 (residues 224-528)
T1 sequence (Q06124 224-528): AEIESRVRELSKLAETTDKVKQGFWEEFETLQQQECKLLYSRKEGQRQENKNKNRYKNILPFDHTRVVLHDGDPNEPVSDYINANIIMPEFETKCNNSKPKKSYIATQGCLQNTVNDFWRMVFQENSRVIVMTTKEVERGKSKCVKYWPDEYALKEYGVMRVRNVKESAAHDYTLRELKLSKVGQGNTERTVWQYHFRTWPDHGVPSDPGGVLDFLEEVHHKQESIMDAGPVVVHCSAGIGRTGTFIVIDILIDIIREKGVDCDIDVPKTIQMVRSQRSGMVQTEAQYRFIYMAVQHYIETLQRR
Description: (§1) During active compound characterization, other common PTPs, including SHP1. PTP1B, and LYP, were counter-screened. Compounds were incubated for 10 minutes with the corresponding PTP (4 μM) before being diluted 50-fold into a solution containing excess substrate para-nitrophenyl phosphate (10 mM) to monitor the remaining activity. […] This was not expected, given their high sequence and structural homology. […] While unexpected, the lower sequence homology provides a rationale for the observed selectivity.
(§2) Inhibitors were evaluated for their ability to inhibit the reaction catalyzed by SHP2 using para-nitrophenyl phosphate (pNPP) as a substrate at pH 7 and 25° C. The reaction was started in a clear flat-bottom 96-well plate (Corning Costar Assay Plate #9017) by the addition of 25 μL of 4 μM PTP in DMG buffer to 25 μl of 2× inhibitor (final concentrations=2 μM PTP, 100-0 μM inhibitor). Reactions were incubated for 1 or 10 minutes before transferring 4 μL into 196 μL of 10.1 mM pNPP in DMG buffer (final concentration=40 nM PTP, 10 mM pNPP). These wells were then allowed to react for 10, 45, or 3 minutes for SHP1 and SHP2, LYP, PTP1B respectively before quenching with 50 μL of 5 M NaOH. Plates were then read for absorbance at 405 nm using a CLARIOstar^Plus plate reader (BMG Labetch). […]

SHP1 = SHP1 (Homo sapiens, UniProt P29350); experiment: Time-dependent IC50 determination, SHP1 (10 min preincubation, pNPP); assay type: biochemical
Chain of SHP1 (P29350 whole entry): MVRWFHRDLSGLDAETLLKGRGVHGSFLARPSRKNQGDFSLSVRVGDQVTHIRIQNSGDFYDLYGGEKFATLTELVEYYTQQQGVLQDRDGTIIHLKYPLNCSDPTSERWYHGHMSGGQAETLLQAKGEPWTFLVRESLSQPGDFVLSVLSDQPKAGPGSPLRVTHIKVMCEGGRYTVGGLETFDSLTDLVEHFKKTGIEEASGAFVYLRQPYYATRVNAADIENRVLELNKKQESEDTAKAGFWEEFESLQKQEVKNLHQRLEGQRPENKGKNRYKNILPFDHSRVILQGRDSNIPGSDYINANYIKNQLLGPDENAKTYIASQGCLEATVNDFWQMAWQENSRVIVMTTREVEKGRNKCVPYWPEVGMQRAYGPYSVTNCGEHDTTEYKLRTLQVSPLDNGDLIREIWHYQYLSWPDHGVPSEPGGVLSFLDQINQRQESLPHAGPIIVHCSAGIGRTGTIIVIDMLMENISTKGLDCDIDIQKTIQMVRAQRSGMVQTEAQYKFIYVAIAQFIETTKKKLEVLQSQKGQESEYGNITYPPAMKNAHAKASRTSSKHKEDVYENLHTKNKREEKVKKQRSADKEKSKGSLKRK
Description: as §1, §2

LYP = molecular target: T2, LYP (Homo sapiens, UniProt Q9Y2R2); experiment: Time-dependent IC50 determination, LYP (10 min preincubation, pNPP); assay type: biochemical
T2 sequence (Q9Y2R2 1-807): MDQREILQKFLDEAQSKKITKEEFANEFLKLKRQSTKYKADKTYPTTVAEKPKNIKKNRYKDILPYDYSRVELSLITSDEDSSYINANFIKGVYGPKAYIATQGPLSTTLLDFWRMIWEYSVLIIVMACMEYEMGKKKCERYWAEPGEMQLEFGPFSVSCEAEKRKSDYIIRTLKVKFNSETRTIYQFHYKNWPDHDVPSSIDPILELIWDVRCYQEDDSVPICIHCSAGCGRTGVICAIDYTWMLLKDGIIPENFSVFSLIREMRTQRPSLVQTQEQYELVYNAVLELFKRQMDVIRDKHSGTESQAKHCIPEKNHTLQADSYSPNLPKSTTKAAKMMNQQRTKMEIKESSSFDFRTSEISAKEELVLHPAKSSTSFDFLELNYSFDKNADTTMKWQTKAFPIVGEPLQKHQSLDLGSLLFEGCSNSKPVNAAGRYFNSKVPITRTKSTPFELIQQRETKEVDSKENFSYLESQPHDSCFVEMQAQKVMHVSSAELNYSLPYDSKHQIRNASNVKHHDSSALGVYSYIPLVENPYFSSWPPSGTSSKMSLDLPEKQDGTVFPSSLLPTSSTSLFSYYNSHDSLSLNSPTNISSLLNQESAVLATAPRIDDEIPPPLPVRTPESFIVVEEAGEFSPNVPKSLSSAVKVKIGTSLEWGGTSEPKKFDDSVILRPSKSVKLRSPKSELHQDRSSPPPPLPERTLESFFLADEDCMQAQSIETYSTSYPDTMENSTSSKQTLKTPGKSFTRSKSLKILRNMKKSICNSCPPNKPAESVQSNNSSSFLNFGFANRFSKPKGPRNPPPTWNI
Description: as §1, §2

SHP2 [2] = molecular target: T1, SHP2; experiment: Covalent adduct formation on SHP2 by intact protein LC-MS; assay type: binding; conditions: 10 μM SHP2, 60 minutes
Description: To validate covalent modification of SHP2 by the active compounds, adduct formation on SHP2 was measured by intact protein liquid chromatography-mass spectrometry (LC-MS). With intact protein LC-MS, multiply charged states of the protein species can be deconvoluted to achieve the total mass(es). Compounds were incubated with 10 μM SHP2 for 60 minutes before being quenched with acetonitrile for LC-MS analysis by electrospray ionization (ESI) in positive mode. […] (33), and (42) (FIGS. 3A and 3B).
To unfold protein and quench protein-ligand reactivity, 10 μL of treated or untreated 10 μM SHP2 was diluted in 40 μL of 80% (v/v) formic acid initially, followed by 150 μL of LC-MS buffer (50/50 water/acetonitrile with 0.1% formic acid). 20-25 pmol per sample was analyzed by LC/MS (Agilent 1260 Infinity II with a ZORBAX Rapid Resolution High Definition 300 Å Stable Bond C3, 2.1×100 mm, 1.8 μm column) attached to an Agilent 6129 quadrupole mass spectrometer in positive ion mode. The column was held at 45° C. Mobile solution A was 0.1% formic acid in water, and mobile phase B was 0.1% formic acid in acetonitrile. The gradient used was hold at 10% B for 5 min, increase linearly to 80% B for 15 min, and then hold at 80% B for 5 min. The mass data were collected at a range of 600-1500 m/z. Raw data were processed using MestReNova. For all samples, the deconvoluted mass was calculated by taking the m/z range of 730-1100 Da, and deconvoluted mass range from 36500-37200 Da. An abundance threshold of 10% and tolerance of 30 ppm was set for deconvolution. Unreacted SHP2's total deconvoluted mass was 36602±10 Da; for each deconvolution, the highest deconvoluted mass intensity was utilized as the mass pivot point to determine and identify reacted SHP2 adducts. To calculate the percent SHP2 reacted, the relative abundance intensity of reacted SHP2 was divided by the total relative abundance intensities of unreacted and reacted SHP2.

SMILES: C=C1C(=O)[C@@]2(C(=O)N3CCN(c4ccc(I)cc4)CC3)CC(=O)C[C@@H]1C2 [Compound 37]
- pIC50 (SHP2 [1]): 4.81
- pIC50 (SHP1; SHP1, 10 minutes preincubation, curve not completed (solubility), extrapolated, read-out: 10 Minute IC50): 3.67
- Fold-Selective (10 Minutes) (SHP1; SHP2 over SHP1): 13.75 fold
- pIC50 (LYP; LYP, 10 minutes preincubation, curve not completed (solubility), extrapolated, read-out: 10 Minute IC50): 3.31
- Fold-Selective (10 Minutes) (LYP; SHP2 over LYP): 31.12
- Found Ligand Adduct (mass shift) (SHP2 [2]; intact protein LC-MS): 461 Da
- % SHP2 Reacted (overall adduct formation) (SHP2 [2]; PVSN at 20 μM, compound 37 at 10 μM): 33%
